Reference: US10526416B2, “Anti-HER3 antibodies and uses of same” (Yeda Research and Development Co. Ltd., priority 2014, dated 2020)

Assays:
H1975 NSCLC cells = assay: H1975 NSCLC tumor growth in CD1-nu/nu mice; assay type: in vivo
EGFR phosphorylation = assay: Western blot of EGFR phosphorylation in PC9ER-AZDR cells; assay type: cell-based, human; settings: 6 hours, 1 μM
Protocol: Cells were grown under specified conditions or treated as indicated. Following the cells were washed twice with cold PBS and scraped into lysis buffer [50 mM Hepes (pH 7.5), 10% glycerol, 150 mM NaCl, 1% Triton X-100, 1 mM EDTA, 1 mM EGTA, 10 mM NaF, 0.1 mM Na3VO4, and a complete protease inhibitor cocktail]. Thereafter, lysates were centrifuged at 14,000 g for 15 minutes at 4° C. The supernatant was used for subsequent procedures. Western blot analyses were conducted following protein separation using gel electrophoresis and transfer to nitrocellulose membranes. Immunoblotting was performed according to the antibody manufacturers' recommendation. Blocking was done using 5% milk in PBST (0.5% Tween20 Sigma Cat#P9416). Antibody binding to membrane blots was detected using horseradish peroxidase-secondary antibodies (Jackson ImmunoResearch Laboratories), followed by treatment with ECL Western blotting detection reagents (GE Healthcare).

PC9ER-AZDR cells = assay: MTT assay on PC9ER-AZDR cells; settings: 72 hours treatment
BxPC3 cells = assay: MTT assay on BxPC3 cells in culture; assay type: cell-based, human; settings: 3 days
Protocol: (§1) FIGS. 15A-F show the effects of a mixture of two anti HER3 mAbs, in vivo on BxPC3 cell xenografts and in vitro. (FIGS. 15A-C) CD1-Nude mice were grafted subcutaneously with 5×10^6 BxPC3 cells. Once tumors became palpable (after 13 days), the mice were randomized into group of 8 mice and treated every 3 days for 5 weeks. The control group (CTRL) was injected intra-peritoneally (IP) with 200 μl PBS. The other groups were treated with mAb alone or in combination at a final concentration of 0.2 mg/0.2 ml of PBS per mouse. The mice were weighted once a week and the tumors measured twice a week. An average tumor size of 7-8 mice (+/−SEM) is shown. (FIGS. 15D-F) Proliferation assays using MTT were performed on BxPC-3. 5,000 cells per well were plated the day before and treated for 72 h with the indicated mAb treatment. Decreasing concentrations of the indicated mAb (alone or in combination) were used in medium supplemented with 1% serum and NRG (10 ng/ml).
To determine if the combination of NG33 mAb with another anti-HER3 mAb is more efficient than using NG33 alone, the combination of two mAbs, NG33 and XC252, was tested on several tumor cell lines, which were grafted subcutaneously (gastric: N87, lung: A549, pancreatic: BxPC3, ovarian: OVCAR-5, and head and neck: CAL-27, FIG. 14). This pilot was performed with 3 mice per group. Mice were injected twice a week with the mAb combination or with PBS. The best responder of these in vivo models for solid tumor growth was the BxPC3 xenograft model. […] This experiment was performed on 7 to 8 mice per group. The mice were treated every 3 days with PBS, each mAb alone or a mAb combination, for 5 weeks (0.2 mg/injection). […] In order to reinforce the in vivo data, the cytotoxicity of each mAb alone or in combination with NG33 was tested on BxPC3 cells in culture (FIGS. 15D, 15E and 15F). Decreasing concentrations of mAb were used and a MTT assay was performed following 3 days of treatment. […] On the contrary, XC252 used alone has a […] cytotoxic impact on BxPC3 proliferation leading to 60% inhibition of cell survival at high concentration.

BxPC3 xenografts = assay: BxPC3 cell xenografts in CD1-Nude mice; assay type: in vivo; settings: 0.2 mg/injection IP every 3 days for 5 weeks, 7 to 8 mice per group
Protocol: as §1
All animal studies were approved by the Weizmann Institute's Review Board (IRB). Tumor bearing CD1/nude mice were randomized in groups of five-ten mice and injected subcutaneously in the right flank with cancer cells (3-5×10^6 per mouse depending on the cell line). mAbs were injected intraperitoneally at a total dose of 200 μg per mouse per injection, twice a week, for 5 weeks or until tumors reached the size of 1,500 mm^3. In experiments evaluating the effect of the TKI AZD-9291, Vehicle (Vehicle formulation: HPMC 0.5% (sigma Cat#56340), Tween80 0.1% (Sigma Cat #P8074 in water), Erlotinib at a dose of 50 mg/kg per injection, or AZD9291 at a dose of 1 or 5 mg/kg per injection were injected daily intraperitoneally. In one experiment (FIG. 16), mice were treated daily with Erlotinib at a dose of 50 mg/kg per injection until tumors reached a size of 800 mm^3 and only then were treated as indicated. Tumor volume and body weight were evaluated twice and once per week, respectively. Mice were euthanized when tumor size reached 1,500 mm^3. […] Survival of the tumor bearing mice was recorded and depicted by Kaplan-Meier analysis. […]

IgB3 = target: T1, IgB3 (Homo sapiens, UniProt P21860); assay: Antibody competition assay with Lumi4(Tb)-labeled NG33 on IgB3-coated plates; assay type: binding; settings: NG33-K2 1 nM
T1 construct: To produce IgB3 (recombinant HER3 extracellular domain fused to a human IgG Fc domain); made in house
T1 sequence (P21860 20-643 limits assumed): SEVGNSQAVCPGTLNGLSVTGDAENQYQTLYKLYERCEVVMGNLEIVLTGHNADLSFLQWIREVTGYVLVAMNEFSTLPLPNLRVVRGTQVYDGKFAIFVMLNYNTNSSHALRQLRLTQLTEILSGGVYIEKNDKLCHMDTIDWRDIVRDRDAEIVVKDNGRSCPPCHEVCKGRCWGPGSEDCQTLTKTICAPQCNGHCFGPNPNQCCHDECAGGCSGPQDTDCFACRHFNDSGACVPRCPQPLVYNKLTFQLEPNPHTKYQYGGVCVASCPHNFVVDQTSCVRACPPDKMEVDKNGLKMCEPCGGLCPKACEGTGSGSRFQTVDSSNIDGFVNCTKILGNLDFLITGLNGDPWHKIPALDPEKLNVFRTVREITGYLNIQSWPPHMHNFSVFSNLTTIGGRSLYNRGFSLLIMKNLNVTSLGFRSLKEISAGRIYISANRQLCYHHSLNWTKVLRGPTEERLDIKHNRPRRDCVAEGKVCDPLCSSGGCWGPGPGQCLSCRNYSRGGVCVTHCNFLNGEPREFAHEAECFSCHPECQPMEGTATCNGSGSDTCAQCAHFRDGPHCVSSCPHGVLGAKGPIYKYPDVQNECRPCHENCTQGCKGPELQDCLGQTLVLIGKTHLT
T1 sequence (P01857 99-330 partner limits assumed): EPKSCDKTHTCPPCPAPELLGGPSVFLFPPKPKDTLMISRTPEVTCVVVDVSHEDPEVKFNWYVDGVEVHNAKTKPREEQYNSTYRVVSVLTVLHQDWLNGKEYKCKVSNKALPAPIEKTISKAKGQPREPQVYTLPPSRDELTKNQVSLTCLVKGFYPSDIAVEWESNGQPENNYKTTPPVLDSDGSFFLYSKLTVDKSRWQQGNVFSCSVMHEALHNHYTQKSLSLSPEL
Protocol: FIGS. 12A-D show a combination of two mAbs directed to two different epitopes of HER3. (FIGS. 12A and 12B) The antibodies NG33 and XC252 were labeled with the fluorescent dye Lumi4® Tb Cryptate (K2). 96 well-plate were coated with IgB3 (1.5 μg/ml), blocked with PBS-BSA and incubated for 1 h with various concentrations of mAbs under gentle shaking at RT. The labeled mAb, NG33-K2 (FIG. 12A) or XC252-K2 (FIG. 12B), was then added at 1 nM final concentration. After ah incubation, the plate was washed 4 times with KREBS buffer, and the fluorescence intensity at 610 nm was measured using a fluorescence microplate reader. (FIG. 12C) The various anti-HER3 mAb combinations were studied for their ability to trigger HER3 degradation using N87 cells. Cells were treated for 2 h at 37° C. with mAb (10 μg/ml). After cell lysis and protein extraction, the samples were subjected to immunoblotting with the indicated antibodies. (FIG. 12D) The combination's capacity to modulate NRG-induced phosphorylation of HER3, AKT and ERK was evaluated using N87 cells. After 20 min treatment at 37° C. with 10 μg/ml of mAbs, NRG (20 ng/ml) was added to the cells for 10 min. The cells were then lysed, and equal quantities of lysate protein were electrophoresed before immunoblotting, as indicated.
Agent labeling was performed by Cisbio. […] Following 1 h incubation, the plate was washed 4 times with KREBS buffer (146 mM NaCl, 4 mM KCl, 0.5 mM MgCl2, 1 mM CaCl2, 10 mM Hepes, 1 gr/L glucose, and 1 mg/mL albumin), and the fluorescent intensity (excitation: 488 nm, emission: 610 nm) was measured using a fluorescence microplate reader. […] Finally, following two washes with KREBS buffer, the fluorescence intensity was measured at 670 nm (excitation: 620 nm).
Combinations of antibodies directed against two different epitopes of the same receptor, as has been previously shown, can improve the effect of treatment with a single mAb (28, 29). […] First, it was determined which antibody from the anti-HER3 series targets an epitope distinct from that targeted by NG33. […]

Molecule	inhibition of H1975 tumor growth (H1975 NSCLC cells; AZD9291 5 mg/kg/day or triple mAbs)	body weight gain (H1975 NSCLC cells; H1975 tumor-bearing mice, AZD9291 5 mg/kg/day)	EGFR phosphorylation in PC9ER-AZDR cells on exposure (EGFR phosphorylation)	survival / sensitivity of PC9ER-AZDR cells (MTT) (PC9ER-AZDR cells)	effect on BxPC3 proliferation/survival (in words) (BxPC3 cells)	effect on BxPC3 xenograft tumor growth (BxPC3 xenografts)	effect on binding of Lumi4(Tb)-labeled NG33 to IgB3 (IgB3)
C=CC(=O)Nc1cc(Nc2nccc(-c3cn(C)c4ccccc34)n2)c(OC)cc1N(C)CCN(C)C [AZD-9291]	comparably inhibited growth of the erlotinib-resistant human NSCLC	slightly inhibited body weight gain compared with the triple mAb combination	EGFR remained phosphorylated	lost sensitivity to AZD-9291	–	–	–
NG140: anti-HER3 mAb; light chain CDRs SEQ ID NOs: 13-15, heavy chain CDRs 16-18 (antibody, V domains shown, VH chain of NG140 polypeptide; VL chain of NG140 polypeptide) VH: QVQLKESGPGLVKPSQSLSLTCSVTGYSITSGYYWNWIRQFPGNKLEWMGSIYYDGSNNYNPSLKNRISVTRDTSKNQFFLKLNSVTTEDTATYYCARDYDVGYAMDYWGQGASVTVSS VL: DIVLTQSSSYLSVSLGGRVTITCKASDHINNWLAWYQQKPGNAPRLLISGATSLETGVPSRFSGSGSGKDYTLSITSLQTEDVATYYCQQYWSIPWTFGGGTKLEIK	–	–	–	–	did not interfere with cell proliferation	no statistically significant ability to decrease tumor growth	did not alter NG33 binding
